The values below come from ChEMBL document CHEMBL1201862, “PubChem BioAssay data set” (2004).

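Following 48 hours of exposure in 96-well plates, responses at five concentrations were used to interpolate endpoints linearly. Here, GI50 denotes the concentration required for 50% inhibition of growth.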 Activity calls are given as the source filed them. Rule as the data show it: active = GI50 up to about 1.1 µM and inactive = higher.

Some test systems named below: RXF 393; SNB-75; K562; MCF7; SK-MEL-5; DMS-273; DMS-114; A498; SK-OV-3; M19-MEL; Malme-3M; SW-620; NCI-H522; KM-20L2; OVCAR-5; Hs-578T; SR; MDA-N; PC-3; LXFL 529.
Holding throughout (experiment): NCI tumour cell line growth inhibition, 48 h

Turning to `CCOC(=O)/C(O)=C1\C(=O)N(C)C(=O)C1c1ccc(OC)c(OC)c1` (configuration not stated), the GI50 in the test with RXF 393, in the test with SNB-75, with K562, with MCF7, in the test on SK-MEL-5 and in the test on DMS-273 was > 100 µM (inactive) throughout. Moreover, the GI50 is > 100 µM (inactive) with DMS-114; > 100 µM (inactive) in the test on A498; > 100 µM (inactive) with SK-OV-3; > 100 µM (inactive) in the test with M19-MEL; > 100 µM (inactive) with Malme-3M; > 31.6 µM (inactive) in the test with SW-620. Besides, the GI50 with NCI-H522, in the test with KM-20L2 and with OVCAR-5 was > 100 µM (inactive) in each case.

Turning to `Brc1ccccc1/C=C\C1(c2ccccc2)OCCO1`, the GI50 in the test with RXF 393 is 13.9 µM (inactive); in the test on Hs-578T, 7.6 µM (inactive); with SNB-75, 15 µM (inactive); in the test with K562, 1.01 µM (active); in the test on MCF7, 4 µM (inactive); in the test with SK-MEL-5, 15.2 µM (inactive). Further, the GI50 in the test with SR is 0.692 µM (active); with A498, 12.9 µM (inactive); in the test with SK-OV-3 it was 13.6 µM (inactive); in the test on Malme-3M, 15.9 µM (inactive); with SW-620, 5.47 µM (inactive); in the test on MDA-N it was 12.3 µM (inactive). The figures for the GI50 in the test with NCI-H522, with PC-3 and with OVCAR-5 were 8.11 µM (inactive), 17.9 µM (inactive) and 15.3 µM (inactive), respectively.

In the case of `CN(C)C(CN)CC1=C(CC(CN)N(C)C)CCC1` (configuration not stated), the GI50 in the test with RXF 393, in the test with SNB-75, in the test with K562, in the test with MCF7, with SK-MEL-5 and in the test with DMS-273 was > 100 µM (inactive) throughout. The GI50 in the test on DMS-114, with A498, in the test on SK-OV-3, in the test on M19-MEL, in the test with Malme-3M and in the test on SW-620 was > 100 µM (inactive) throughout. Besides, the GI50 with NCI-H522, in the test on KM-20L2 and in the test with OVCAR-5 was > 100 µM (inactive) each time.

For the compound `CCOc1cc(C(=O)O)c2c(ccc3ccc(OC)c(OC)c32)c1OC`, the GI50 with RXF 393, with Hs-578T, in the test on SNB-75, in the test with K562, in the test on MCF7 and in the test with SK-MEL-5 was > 100 µM (inactive) throughout. Moreover, the GI50 in the test on SR, with SK-OV-3, in the test with Malme-3M, with SW-620, in the test with MDA-N and in the test on NCI-H522 was > 100 µM (inactive) in each case. Moreover, the GI50 in the test with PC-3 and in the test on OVCAR-5 was > 100 µM (inactive) each time.

Regarding `COc1ccc(-c2c(C#N)c(NC(=S)NC(=O)c3ccccc3)nc3c2CCCC3)cc1OC`, the GI50 is 18.3 µM (inactive) in the test with RXF 393; 33.3 µM (inactive) with Hs-578T; 22.3 µM (inactive) in the test on SNB-75; 29.6 µM (inactive) with K562; 46.3 µM (inactive) in the test on MCF7; 34.6 µM (inactive) with SK-MEL-5. For the same compound, the GI50 in the test on SR is 59.2 µM (inactive); with SK-OV-3, > 100 µM (inactive); with Malme-3M, 29.8 µM (inactive); with SW-620 it was 75.9 µM (inactive); in the test with MDA-N, 65.3 µM (inactive); with PC-3, 46.2 µM (inactive). The GI50 in the test on OVCAR-5 is 98.2 µM (inactive).

As to `COc1cc2c(cc1OC)C(Cc1c3ccccc3cc3ccccc13)N(C)CC2` (configuration not stated), the GI50 with RXF 393 was 10.5 µM (inactive); in the test with SNB-75, 14.4 µM (inactive); in the test on K562 it was 12.5 µM (inactive); in the test on MCF7, 13.7 µM (inactive); in the test with SK-MEL-5, 17.3 µM (inactive); in the test on DMS-273, 26 µM (inactive). The GI50 in the test on A498 was 17.4 µM (inactive); in the test with SK-OV-3, 22.4 µM (inactive); in the test with M19-MEL it was 21.3 µM (inactive); in the test on SW-620 it was 27 µM (inactive); in the test with NCI-H522 it was 24.4 µM (inactive); with KM-20L2, 15.2 µM (inactive). Further, the GI50 in the test on OVCAR-5 was 13.5 µM (inactive).

In the case of `COCCOCOC(C)(C)[C@H](CCO)O[Si](c1ccccc1)(c1ccccc1)C(C)(C)C`, the GI50 was 5.3 µM (inactive) with RXF 393; 8.11 µM (inactive) in the test with SNB-75; 9.95 µM (inactive) in the test on LXFL 529; 13.4 µM (inactive) in the test on SK-MEL-5; 3.25 µM (inactive) in the test with SR; 16.7 µM (inactive) in the test on A498. In addition, the GI50 in the test on SK-OV-3 was 12.5 µM (inactive); in the test with M19-MEL, 11.7 µM (inactive); in the test on Malme-3M it was 14.3 µM (inactive); with SW-620 it was 11.2 µM (inactive); in the test with NCI-H522 it was 4.57 µM (inactive); in the test on KM-20L2, 11.8 µM (inactive). In addition, in the test on OVCAR-5, the GI50 was 14.1 µM (inactive).

For the compound `CC1(C)N/C(=C\C=O)C(C)(C)N1O`, the GI50 in the test on RXF 393, in the test with Hs-578T, with K562, in the test with MCF7, in the test with SK-MEL-5 and in the test with SR was > 100 µM (inactive) in each case. In addition, the GI50 with SK-OV-3, with Malme-3M, in the test on SW-620, in the test on MDA-N, with PC-3 and in the test on OVCAR-5 was > 100 µM (inactive) in each case.

Take `CCCCN(CCCC)c1ccc(/N=N/c2ccc(S(=O)(=O)O)cc2)cc1`: the GI50 is 14.4 µM (inactive) in the test on RXF 393; 11.7 µM (inactive) with SNB-75; 26.9 µM (inactive) with K562; 21.9 µM (inactive) in the test on MCF7; 16.2 µM (inactive) with SK-MEL-5; 31.4 µM (inactive) with A498. For the same compound, the GI50 with SK-OV-3 is 25.5 µM (inactive); in the test with SW-620 it was 33 µM (inactive); with MDA-N it was 52.2 µM (inactive); in the test with PC-3, 25.8 µM (inactive); in the test on OVCAR-5, 60.8 µM (inactive).

As for `O=C(NN1C(=O)CS(=O)(=O)C1c1ccc(C(F)(F)F)cc1)c1ccncc1` (configuration not stated), the GI50 in the test on RXF 393, with SNB-75, in the test with LXFL 529, with SK-MEL-5, in the test with DMS-273 and with SR was > 100 µM (inactive) in each case. The GI50 with DMS-114, in the test on A498, in the test with SK-OV-3, in the test on Malme-3M, with SW-620 and with NCI-H522 was > 100 µM (inactive) in each case. For the same compound, the GI50 in the test on OVCAR-5 is > 100 µM (inactive).

For `CC1(C)CCc2ccc(OCCC(=O)O)cc2O1`, the GI50 was 83.4 µM (inactive) in the test on SNB-75; > 100 µM (inactive) in the test with K562; > 100 µM (inactive) in the test on LXFL 529; > 100 µM (inactive) in the test on SK-MEL-5; > 100 µM (inactive) in the test on DMS-273; > 100 µM (inactive) in the test with SR. Moreover, the GI50 in the test on DMS-114, in the test on SK-OV-3, in the test with M19-MEL, in the test on Malme-3M, with SW-620 and in the test with NCI-H522 was > 100 µM (inactive) each time. Moreover, the GI50 in the test on OVCAR-5 is > 100 µM (inactive).
